Experimental findings from patent US9700538B2, “Cardiovascular disease primary prevention agent for patients having high blood levels of high-sensitivity C-reactive protein” (MOCHIDA PHARMACEUTICAL CO., LTD., priority 2012, dated 2017) are described below.

The subject of the experiment is subjects with no history of cardiovascular disease, blood hs-CRP value of at least 1.0 mg/L. Put plainly: Hisayama epidemiologic study: events by administration of statin drug and EPA in the high hs-CRP group. It counts as in vivo, human. From the text:
The Hisayama study is an epidemiologic study of cerebral stroke, cardiovascular disease, and the like that has been conducted with the residents of the town of Hisayama town (population, about 8,400) in Kasuya county of Fukuoka prefecture adjacent to Fukuoka city from 1961. The age and occupation distributions of the residents of Hisayama town were almost identical to those of Japan as a whole, and the residents can be regarded as an average group of Japanese people with substantially no bias. Features of the Hisayama study include participation of all residents (who are at least 40 years old), prospective cohort study, examination and home visit by the stuff of the study, consultation rate (at least 80%), autopsy rate (about 80%), and follow-up rate (at least 99%), and the most characteristic feature of this study is the high rate of autopsy. No diagnosis is more accurate than autopsy in finding out the accurate cause of the death, and the precision of the follow up study is also high. In addition, the Hisayama study periodically adds the residents who have reached 40 years old to the group every 5 years, and estimation of influence of the life style transition as well as change of risk factors was thereby enabled.
3,103 residents of 40 years old or older who were registered in 2002 were used for the subject excluding those who have history of cardiovascular disease and those with no data of EPA/AA ratio. Average follow-up period was 5.1 years.
The group with a blood hs-CRP value of at least 1.0 mg/L (high hs-CRP group) was extracted from the entire subjects. The blood hs-CRP value was quantitated by using a commercially available assay kit.
The high hs-CRP group was further divided into 4 groups by the administration and non-administration of the statin drug and the administration and non-administration of the EPA.
In the table, “statin (−)+EPA (−)” means that neither the statin drug nor the EPA was administered to a subject; “statin (+)+EPA (−)” means that the statin drug was administered but not the EPA; “statin (−)+EPA (+)” means that the statin drug was not administered despite the administration of the EPA; and “statin (+)+EPA (+)” means that both the statin drug and the EPA were administered. Furthermore, “event (−)” and “event (+)” […].

[1] abbreviates: high hs-CRP group, EPA irrespective of statin, statin drug vs no statin within the group with no EPA.
Setting [2] is: number of subjects, high hs-CRP group (hs-CRP ≧1.0 mg/L), average follow-up 5.1 years.

As to `CC/C=C\C/C=C\C/C=C\C/C=C\C/C=C\CCCC(=O)O` [EPA, all-cis-5,8,11,14,17-icosapentaenoic acid], for the setting “entire subjects, irrespective of administration of the statin drug”, the “Cerebral stroke event occurrence (in words)” value was “no event occurred”. For the same compound, under setting [1], the “Cardiovascular disease event occurrence (in words)” value is on record as “no event occurred”, the “Cerebral stroke event occurrence (in words)” value is recorded as “no event occurred” and the “Coronary artery disease event occurrence (in words)” value is on record as “no event occurred”. Also, under setting [2], the “Cardiovascular disease, Event (+)” value stood at 0; the “Cardiovascular disease, Event (−)” value is recorded as 4; the “Cerebral stroke, Event (+)” value stood at 0; the “Cerebral stroke, Event (−)” value is 4. Besides, under setting [2], the “Coronary artery disease, Event (+)” value was determined as 0 and the “Coronary artery disease, Event (−)” value stood at 4.
